We go through 125 compounds from a melting point compilation (Tetko et al.).

For orientation: melting point means the temperature, or range, at which the solid turns liquid. On to `O=C(O)C1CC(=O)N(c2ccc(Cl)cc2)C1` (stereo not given), for which the melting point is 149 to 151 °C.

Consider `O=C(CCCl)Nc1ccccc1Br`, for which the melting point was in the range of 104 to 106 °C.

Turning to `CNC(=O)c1cc(NC)ccn1`, the melting point was 114 to 116 °C.

`O=C(O)CNC(=O)c1ccc(N2CCCC2=O)cc1` came in with a melting point of 190 to 200 °C.

On to `Sc1nnc(NCc2ccccc2)s1`, for which the melting point was in the range of 146 to 148 °C.

Take `COc1ccc(CCNC(=O)c2ccccc2N)cc1`: the melting point lay within 80 to 82 °C.

In turn, `O=Cc1ccc(C(=O)O)cc1Cl` gave a melting point of 218 to 220 °C.

In turn, `O=S(=O)(F)c1ccc2[nH]ncc2c1` had a melting point of 175 to 177 °C.

`N#Cc1ccc(N2CCC(N)CC2)cc1` had a melting point of 84 to 86 °C.

Compound `OCc1cc2ccccc2nc1Cl` had a melting point of 163 to 165 °C.

Compound `CCn1c(=O)cc(N)n(Cc2ccccc2)c1=O` yielded a melting point of 106 to 108 °C.

With `O=C(NC1CC1)C1CCNCC1`, the melting point lay within 135 to 137 °C.

Turning to `CCc1ccc2c(CCl)cc(=O)oc2c1`, the melting point was in the range of 138 to 140 °C.

Take `CCOCc1cc(C(=O)O)ccc1OC`: the melting point was 142 to 146 °C.

`CCc1nonc1N`: the melting point was in the range of 69 to 71 °C.

`Cc1nc(C)c(-c2csc(N)n2)s1` yielded a melting point of 125 to 127 °C.

The compound `CCOC(=O)CC(=O)c1[nH]c(C)c(C(=O)OCC)c1C` gave a melting point of 141 to 143 °C.

Consider `N#Cc1cc2c([nH]c1=O)CCC2`, for which the melting point was in the range of 219 to 221 °C.

As to `Cc1ccc(C)c(S(=O)(=O)NN)c1`, the melting point lay in the range of 75 to 77 °C.

`NC1(c2ccc(Br)cc2)CCOCC1`: the melting point lay within 85 to 87 °C.

As to `COCCc1ccc(S(=O)(=O)Cl)cc1`, the melting point lay within 40 to 42 °C.

The compound `CCS(=O)(=O)NCC(=O)O` returned a melting point of 85 to 87 °C.

For `ClCC12CC3CC(CC(C3)C1)C2`, the melting point is 38 to 42 °C.

With `Cc1ccc(C2(C)NC(=O)NC2=O)c(C)c1` (stereo not given), the melting point fell in the range of 144 to 146 °C.

Compound `CC(=O)N(C)c1ccccc1N` gave a melting point of 146 to 148 °C.

Turning to `Cc1cc(=O)n2nc(N)sc2n1`, the melting point is 335 to 337 °C.

In turn, `Nc1cc(Br)cc(C(=O)O)c1` registered a melting point of 217 to 221 °C.

`Cc1cccc(OCCC(=O)O)c1` registered a melting point of 99 to 101 °C.

The compound `Cc1nnc(-c2cccc(CN)c2)[nH]1` showed a melting point of 199 to 201 °C.

Consider `CC(=O)c1c(C)nc2sccn12`, for which the melting point lay in the range of 132 to 134 °C.

The compound `Cc1cc(C)c2c(c1)NC(=O)C2=O` registered a melting point of 233 to 235 °C.

In turn, `O=C(O)C1CCS(=O)(=O)C1` (stereo not given) showed a melting point of 135 to 137 °C.

Regarding `CS(=O)(=O)OCCN1C(=O)c2ccccc2C1=O`, the melting point lay in the range of 140 to 142 °C.

The compound `N#CCC(=O)c1ccc2c(c1)OCO2` had a melting point of 134 to 136 °C.

`O=[N+]([O-])c1ccc(NCc2ccccn2)cc1` showed a melting point of 119 to 121 °C.

For `O=C(NO)c1ccc(Cl)cc1`, the melting point lay in the range of 170 to 172 °C.

As to `NC(=O)NC(CC(=O)O)c1ccccc1Cl` (stereo not given), the melting point is 163 to 165 °C.

As for `CCc1[nH]nc(N)c1-c1ccc2c(c1)OCO2`, the melting point is 97 to 99 °C.

As to `Cc1ccc(C=O)nc1`, the melting point fell in the range of 39 to 41 °C.

`Cc1cc(F)c2c(c1)C(=O)C(=O)N2` returned a melting point of 225 to 227 °C.

The compound `NCc1noc(-c2ccsc2)n1` yielded a melting point of 127 to 129 °C.

In turn, `NCc1ccnc(N)c1` gave a melting point of 92 to 94 °C.

`O=C(O)c1ccnc(Cl)c1I` gave a melting point of 218 to 220 °C.

For `CC(C)NC(=O)NN`, the melting point was in the range of 77 to 79 °C.

With `COc1cc(C=O)ccc1OC(=O)c1cccs1`, the melting point was 64 to 69 °C.

Consider `CCC(CC)C(N)=S`, for which the melting point was 55 to 57 °C.

On to `CC(=O)N(C)c1ccc(S(N)(=O)=O)cc1`, for which the melting point was 153 to 155 °C.

Turning to `Nc1nnc2ccccn12`, the melting point was 229 to 231 °C.

Regarding `COc1ccc2c(-c3ccccc3)cc(Cl)nc2c1`, the melting point lay within 100 to 102 °C.

The compound `COc1ccccc1NC(=O)c1ccc(NC(=O)C(C)Cl)cc1` (stereo not given) gave a melting point of 149 to 151 °C.

Consider `CN(C)S(=O)(=O)c1ccc2c(c1)nc(CCC(=O)O)n2C`, for which the melting point is 205 to 209 °C.

As for `CCS(=O)(=O)c1cccc(F)c1N`, the melting point lay within 91 to 93 °C.

In turn, `Cc1cc(Br)c(N)cc1[N+](=O)[O-]` had a melting point of 115 to 117 °C.

Consider `O=C(O)c1cc(-c2ccccn2)ccc1Cl`, for which the melting point lay in the range of 215 to 217 °C.

As for `Cn1c(Cl)nnc1-c1ccc(Cl)cc1Cl`, the melting point lay within 161 to 163 °C.

In turn, `O/N=C(/Cc1nc2ccccc2n1C(F)F)c1ccccc1` showed a melting point of 165 to 167 °C.

`CCCCNc1ccc(N2CCOCC2)cc1` gave a melting point of 59 to 61 °C.

In turn, `O=C(O)c1ccc2[nH]c(=O)[nH]c2c1` returned a melting point of 373 to 375 °C.

In the case of `C=CCn1c(C)cc(C(=O)CCl)c1C`, the melting point was in the range of 36 to 40 °C.

With `CC(C)Cn1ncc2cc(C(=O)O)cnc21`, the melting point lay in the range of 175 to 177 °C.

The compound `CCS(=O)(=O)c1ccc(C(=O)O)cc1` displayed a melting point of 216 to 218 °C.

In the case of `NC(=O)CCNC(=O)c1ccccc1N`, the melting point lay within 197 to 199 °C.

Compound `NNC(=O)c1ccoc1` showed a melting point of 128 to 130 °C.

On to `C#CCOc1ccc(C(C)=O)cc1`, for which the melting point lay in the range of 72 to 74 °C.

On to `O=C(O)c1cccc(S(=O)(=O)Nc2ccc(F)cc2)c1`, for which the melting point lay in the range of 140 to 142 °C.

Compound `Cn1cc(C=O)cn1` gave a melting point of 31 to 33 °C.

`NC(=O)NC(=O)CCCCl` registered a melting point of 179 to 181 °C.

The compound `ClCc1noc(-c2ccoc2)n1` showed a melting point of 77 to 79 °C.

For `Oc1c(Cl)c(F)nc(F)c1Cl`, the melting point was 102 to 104 °C.

Compound `Cc1cc(C(=O)NN)c(C)n1-c1ccc(F)cc1` returned a melting point of 160 to 162 °C.

In turn, `Nc1nnc(-c2ccc(Br)cc2)o1` displayed a melting point of 273 to 275 °C.

Turning to `Cc1cc(C)n(CCO)n1`, the melting point lay within 74 to 76 °C.

In the case of `N#CCC(=O)Nc1ccc(S(N)(=O)=O)cc1`, the melting point lay within 215 to 217 °C.

Take `O=Cc1cnc(-c2cccs2)s1`: the melting point lay within 113 to 115 °C.

`Cc1cc(Br)c2c(c1)C(=O)C(=O)N2` showed a melting point of 178 to 180 °C.

In the case of `N#Cc1cc2ccccc2nc1Br`, the melting point lay in the range of 179 to 181 °C.

Take `CC(O)C(NC(=O)C1CC1C)C(=O)O` (stereo not given): the melting point was in the range of 138 to 140 °C.

`NC1(C(=O)O)CCOc2ccccc21` (stereo not given) came in with a melting point of 239 to 241 °C.

In the case of `O=C1NC(=O)C2(CCCc3ccccc32)N1` (stereo not given), the melting point was in the range of 203 to 205 °C.

For `Cc1cc(=O)oc2ccc(OCC(=O)O)cc12`, the melting point was in the range of 153 to 155 °C.

As for `Cc1cncc(C=CC(=O)O)c1`, the melting point lay within 209 to 211 °C.

In turn, `CCCCNc1ccc(S(=O)(=O)N2CCCC2)cc1N` displayed a melting point of 208 to 210 °C.

`O=S(=O)(Cl)Cc1cc(-c2ccccc2)no1`: the melting point is 115 to 117 °C.

The compound `O=C(O)C1(c2ccc(F)cc2F)CCC1` came in with a melting point of 64 to 66 °C.

In turn, `CC(C)(N)CCS(C)(=O)=O` gave a melting point of 41 to 43 °C.

In turn, `Cc1cc(S(=O)(=O)Cl)sc1C(=O)O` came in with a melting point of 194 to 196 °C.

For `O=[N+]([O-])c1ccc(OCc2ccco2)nc1`, the melting point was in the range of 87 to 89 °C.

Compound `OCc1cn2cc(Cl)cc(Cl)c2n1` yielded a melting point of 177 to 179 °C.

`CCOC(=O)c1c[nH]n(CC(=O)O)c1=N` had a melting point of 195 to 197 °C.

`O=C(O)C(Oc1ccc(Cl)c(Cl)c1)c1ccccc1` (stereo not given) gave a melting point of 59 to 61 °C.

The compound `C=CCNC(=O)c1cccc(C#N)c1` showed a melting point of 79 to 81 °C.

As for `O=C(O)c1ccc2c(=O)n(-c3ccc(F)cc3)c(=O)[nH]c2c1`, the melting point is 397 to 399 °C.

In turn, `Cc1nc(-c2cccs2)ccc1C(=O)O` gave a melting point of 191 to 193 °C.

Regarding `Nc1ccncc1F`, the melting point lay in the range of 71 to 79 °C.

As to `Ic1nnc[nH]1`, the melting point was in the range of 196 to 198 °C.

Consider `O=C(O)CCNc1ccc(C(F)(F)F)cc1[N+](=O)[O-]`, for which the melting point is 130 to 134 °C.

Compound `O=C(O)c1cccc(Sc2cccc(Br)c2)n1` had a melting point of 113 to 115 °C.

For the compound `O=C(O)c1ccc(Br)cc1S`, the melting point was in the range of 203 to 205 °C.

Consider `NS(=O)(=O)CC1CCCN1` (stereo not given), for which the melting point is 72 to 74 °C.

On to `Cc1nc2ccc(Cl)cc2cc1C(=O)O`, for which the melting point was 218 to 220 °C.

Compound `O=C(O)c1cc(Br)cc([N+](=O)[O-])c1Cl` showed a melting point of 226 to 228 °C.

For the compound `CCN(Cc1ccccc1)S(=O)(=O)c1cc(C(=O)O)ccc1OC`, the melting point was in the range of 102 to 105 °C.

The compound `CCCC(=O)Nc1ccc(CN)cc1` gave a melting point of 85 to 87 °C.

Turning to `Cc1cc(C(N)C(=O)O)cc(C)c1O` (stereo not given), the melting point lay in the range of 203 to 205 °C.

With `COc1ccc(F)cc1C(=O)O`, the melting point is 87 to 91 °C.

Compound `CC(NC(=O)c1ccccc1Cl)C(=O)O` (stereo not given) registered a melting point of 137 to 139 °C.

For the compound `NNC(=O)COc1ccc(Br)cc1`, the melting point lay within 170 to 172 °C.

As for `O=Cc1cnc(N2CCOCC2)s1`, the melting point is 163 to 165 °C.

In turn, `O=C(O)c1cccc(-c2noc(C3CC3)n2)c1` came in with a melting point of 158 to 160 °C.

With `Cc1cc(N2CCCC2=O)ccc1S(=O)(=O)Cl`, the melting point lay within 104 to 106 °C.

For the compound `Cc1ccc(-c2cc(C(=O)O)c3ccccc3n2)cc1`, the melting point lay in the range of 180 to 184 °C.

For `CCC1(CO)CCNCC1`, the melting point lay within 59 to 61 °C.

`O=Cc1cccc(OCc2occc2C(=O)O)c1`: the melting point was in the range of 123 to 125 °C.

With `O=C1c2ccccc2C(=O)N1CCc1nn[nH]n1`, the melting point was in the range of 256 to 258 °C.

Compound `Sc1nnc(NCCCN2CCOCC2)s1` had a melting point of 145 to 147 °C.

`CN1C(=O)CC(CO)C1c1cccc(Cl)c1` (stereo not given) gave a melting point of 101 to 103 °C.

As to `NS(=O)(=O)c1ccccc1S(=O)(=O)Cl`, the melting point lay in the range of 179 to 181 °C.

Turning to `COc1nc2sccn2c1C=O`, the melting point fell in the range of 130 to 132 °C.

`CC1CCN(C(N)=S)CC1` had a melting point of 103 to 105 °C.

As for `NCCc1ccccc1O`, the melting point was in the range of 107 to 109 °C.

With `O=c1cnc2cc(F)c(F)cc2[nH]1`, the melting point was in the range of 289 to 291 °C.

For the compound `O=C(O)c1ccn(-c2ccccc2F)n1`, the melting point was 122 to 124 °C.

`COc1ccccc1-c1cc(N)on1` had a melting point of 93 to 95 °C.

As to `NC1CCC(=O)NC1=O` (stereo not given), the melting point is 214 to 216 °C.

The compound `Cc1nn(-c2ccccc2)c(N)c1SC#N` displayed a melting point of 108 to 110 °C.
